From paper PMC10349806 (Nature Communications, 2023)
“And” between values parts separate entries of the source, which are not always exact repeats. Equal values may be shown once.

Tests used:
PfCRT variant E207T = assay: CQ uptake assay, oocytes expressing E207T; format: cell-based, Plasmodium falciparum
Procedure: (§1) Site-directed mutagenesis of PfCRT^Dd2 was performed as described using the megaprimer method with overlap extension[21],[54]. The primer pairs used are listed in Supplementary Table 6. Please note that a codon-optimized and oocyte-adapted version of PfCRT^Dd2 was used[22] (Supplementary Fig. 16). The resulting DNA fragment was cloned into the SP64T expression vector and verified by sequencing.
(§2) Oocytes were obtained as described previously. Briefly, adult (>2 years old) female X. laevis frogs (NASCO) were anesthetized in a cooled solution of ethyl 3-amino benzoate methanesulfonate (0.1%, w/v), followed by a surgical removal of parts of the ovary. The ovary lobes were carefully dissected and small pieces of oocytes were incubated in Ca^2+-free ND96 buffer (96 mM NaCl, 2 mM KCl, 1 mM MgCl2 buffered with 5 mM HEPES/NaOH, pH 7.5) supplemented with collagenase D (0.1%, w/v; Roche), BSA (0.5%, w/v), and 9 mm Na2HPO4 at 18 °C for 14-16 h while gentle shaking. After incubation, the oocytes were carefully washed several times with ND96 buffer (96 mM NaCl, 2 mM KCl, 1.8 mM CaCl2, 1 mM MgCl2 buffered with 5 mM HEPES/NaOH, pH 7.5) supplemented with 100 mg l^−1 gentamycin). Defolliculated and healthy-looking stage V-VI oocytes were manually selected for RNA microinjection. The RNA was generated as following: The codon-optimized sequences of PfCRT variants were cloned into the pSP64T expression vector. After vector linearization using the restriction endonucleases BamHI or SalI (New England Biolabs), transcription was performed using the in vitro SP6 mMessage mMachine Kit (Ambion)[34]. The obtained RNA was kept at −80 °C and diluted with nuclease-free water to a concentration of 0.6 μg μl^−1. Precision-bore glass capillary tubes (3.5-inch glass capillaries; Drummond Scientific Co.) were pulled on a vertical puller (P-87 Flaming/Brown micropipette puller, Sutter Instrument Co.), graduated, and placed on a microinjector (Nanoject II Auto-Nanoliter Injector, Drummond Scientific Co.). 50 nl of nuclease-free water alone (control oocytes) or 50 nl of 0.6 μg μl^−1 RNA were injected under stereomicroscopic control. Injected oocytes were incubated for 46–72 h at 18 °C with twice-daily buffer changes before usage in experiments.
Drug uptake assays were performed as described previously[21],[22],[24],[34]. […] The direction of radio-labeled drug transport is here from the mostly acidic extracellular solution (pH 4.5 or 6.0, as indicated) into the oocyte cytosol (pH ∼ 7.2), which corresponds to the efflux of drug from the acidic digestive vacuole (pH 5.2) into the parasite cytoplasm (pH 7.2). The topology of PfCRT in the oolemma is such that both the N- and C-terminus face the extracellular milieu[3],[22]. In the parasite, the N- and C-terminus face the lumen of the digestive vacuole. […] For determination of the amount of drug uptake for each oocyte, the reaction medium was removed and the oocytes were washed three times with 2 ml of ice-cold ND96 buffer. Each oocyte was individually transferred to a scintillation vial containing 5% sodium dodecyl sulfate (200 μl) for lysis. […] Oocytes that were injected with water instead of RNA were analyzed in parallel, representing the uptake of a drug by diffusion and/or endogenous permeation pathways. […] The specific PfCRT-mediated uptake was determined by subtracting the corresponding background value measured in water-injected oocytes from that of PfCRT-expressing oocytes. […]

PfCRT variant E372A = target: T1, PfCRT variant E372A (Plasmodium falciparum, UniProt Q9N623, A220S/E372A/I356T/K76T/M74I/N326S/N75E/Q271E/R371I); assay: CQ uptake assay, oocytes expressing E372A; format: cell-based
T1 sequence (Q9N623 1-424 M74I/N75E/K76T/A220S/Q271E/N326S/I356T/R371I/E372A): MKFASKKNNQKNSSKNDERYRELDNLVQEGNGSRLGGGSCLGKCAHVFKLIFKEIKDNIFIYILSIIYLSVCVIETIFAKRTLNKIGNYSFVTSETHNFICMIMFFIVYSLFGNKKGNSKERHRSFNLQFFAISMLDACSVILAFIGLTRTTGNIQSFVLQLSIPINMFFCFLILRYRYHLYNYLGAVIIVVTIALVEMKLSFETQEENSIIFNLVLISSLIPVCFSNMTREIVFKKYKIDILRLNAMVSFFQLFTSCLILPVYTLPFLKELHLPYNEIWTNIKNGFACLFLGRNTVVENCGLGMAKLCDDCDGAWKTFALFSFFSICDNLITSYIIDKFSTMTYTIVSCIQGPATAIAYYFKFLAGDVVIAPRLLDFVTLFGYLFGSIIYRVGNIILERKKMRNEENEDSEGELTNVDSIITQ
Procedure: as §1, §2
Drug uptake assays were performed as described previously[21],[22],[24],[34]. […] The direction of radio-labeled drug transport is here from the mostly acidic extracellular solution (pH 4.5 or 6.0, as indicated) into the oocyte cytosol (pH ∼ 7.2), which corresponds to the efflux of drug from the acidic digestive vacuole (pH 5.2) into the parasite cytoplasm (pH 7.2). The topology of PfCRT in the oolemma is such that both the N- and C-terminus face the extracellular milieu[3],[22]. In the parasite, the N- and C-terminus face the lumen of the digestive vacuole. CQ uptake kinetics were performed by incubating oocytes in ND96 buffer adjusted to a pH of 4.5, 5.0, 5.5, or 6.0 and supplemented with 50 nM [^3H]CQ and one of 7 different CQ concentrations (10 µM, 50 µM, 100 µM, 200 µM, 300 µM, 400 µM, 500 µM CQ). The reaction was stopped at the 60 min time point, which is in the linear uptake range[22],[34] (Supplementary Fig. 17). For determination of the amount of drug uptake for each oocyte, the reaction medium was removed and the oocytes were washed three times with 2 ml of ice-cold ND96 buffer. Each oocyte was individually transferred to a scintillation vial containing 5% sodium dodecyl sulfate (200 μl) for lysis. The radioactivity of each sample was measured using a liquid scintillation analyzer Tri-Carb 4910 TR (PerkinElmer). Oocytes that were injected with water instead of RNA were analyzed in parallel, representing the uptake of a drug by diffusion and/or endogenous permeation pathways. The resulting value represents the “background“ level of drug accumulation in oocytes (in-depth discussion in[22]). […]

[1] = E372A, 50 µM CQ, 1 h, mean ± SEM

CCN(CC)CCCC(C)Nc1ccnc2cc(Cl)ccc12 (stereo not drawn) [CQ, chloroquine]
Activity at pH 6.0 (PfCRT variant E207T; E207T, 50 µM CQ, 1 h, mean ± SEM): 2.62 ± 0.31 pmol h-1 oocyte-1
R-value (PfCRT variant E207T; E207T, CQ transport at pH 4.5 / pH 6.0): 0.91 ± 0.05
E207T transport activity pH 4.5 (PfCRT variant E207T; pH 4.5, individual replicates, Fig 6b): 3.35 pmol oocyte-1 h-1 and 2.14 pmol oocyte-1 h-1 and 1.74 pmol oocyte-1 h-1
E207T transport activity pH 6.0 (PfCRT variant E207T; pH 6.0, individual replicates, Fig 6b): 3.37 pmol oocyte-1 h-1 and 2.31 pmol oocyte-1 h-1 and 2.17 pmol oocyte-1 h-1
E207T R-value (PfCRT variant E207T; ratio of activity pH 4.5 / pH 6.0): 0.99 and 0.93 and 0.80
Activity at pH 4.5 (PfCRT variant E372A; [1]): 2.23 ± 0.25 pmol h-1 oocyte-1
Activity at pH 6.0 (PfCRT variant E372A; [1]): 4.71 ± 0.40 pmol h-1 oocyte-1
R-value (PfCRT variant E372A; E372A, CQ transport at pH 4.5 / pH 6.0): 0.49 ± 0.08 and 0.49
E372A transport activity pH 4.5 (PfCRT variant E372A; pH 4.5, individual replicates (Fig 6a)): 3.05 pmol oocyte-1 h-1 and 1.75 pmol oocyte-1 h-1 and 2.16 pmol oocyte-1 h-1 and 1.95 pmol oocyte-1 h-1
E3723A transport activity pH 4.5 (PfCRT variant E372A; pH 4.5, single replicates, Fig 1d left): 3.05 pmol oocyte-1 h-1 and 1.75 pmol oocyte-1 h-1 and 2.16 pmol oocyte-1 h-1 and 1.95 pmol oocyte-1 h-1
E372A transport activity pH 6.0 (PfCRT variant E372A; individual replicates (Fig 6a)): 4.02 pmol oocyte-1 h-1 and 4.13 pmol oocyte-1 h-1 and 6.01 pmol oocyte-1 h-1 and 4.68 pmol oocyte-1 h-1
E372A transport activity pH 6.0 (PfCRT variant E372A; single replicates, Fig 1d left): 4.02 pmol oocyte-1 h-1 and 4.13 pmol oocyte-1 h-1 and 6.01 pmol oocyte-1 h-1 and 4.68 pmol oocyte-1 h-1
